Tests used:
OVX-rats [1] = experiment: pQCT densitometry of proximal tibiae, ovariectomized aged rat osteoporosis model; format: in vivo; parameters: anti-resorptive activity compared with positive control EE: dose or concentration left out as unconfirmed; conditions: po, 4 weeks; for Mean Total Bone Mineral Area / Mean Total Bone Mineral Content / Mean Total Bone Mineral Density / Mean Trabecular Bone Mineral Area / Mean Trabecular Bone Mineral Content / Mean Trabecular Bone Mineral Density: proximal tibiae
Procedure: The ovariectomized aged rat was used as a model for the human disease osteoporosis. This is an established animal model, recommended by the United States Food and Drug Administration (FDA), to evaluate and assess potential agents for osteoporosis prevention and therapy. The anti-resorptive efficacy of estetrol (E4) was tested by ex vivo measuring total and trabecular bone mineral density and bone strength after 4 weeks of treatment at necropsy. 17α-ethinyl-estradiol (EE) and vehicle (1% ethanol/arachidis oil) served as controls in this bioassay.
Three months old female Sprague-Dawley rats were either sham-operated (Sham) or ovariectomized (OVX) one day prior to commencement of the dosing study. Animals were anesthetized using a ketamine/xylazine anesthetic mixture and underwent a bilateral ovariectomy or were sham-treated. A section of hair on the dorsal surface was shaved and an incision made overlying the lumbar region of the spine. The skin was separated from the underlying fascia so that a second incision could be made through the abdominal musculature approximately caudal to the kidneys. The ovaries were then exteriorized and removed and the musculature was closed with a single suture. The skin incision was closed using surgical staples.
Ten animals per treatment group were orally dosed once per day for four consecutive weeks. […] Vehicle control was daily administered to one group of OVX-animals and sham-operated rats. After treatment, anesthetized rats were subjected to cardiac puncture and asphyxiated by CO2 inhalation. Tibiae and femura were removed, cleaned of soft-tissue and fixed and stored in 70% ethanol/saline at 4° C. (tibia) or saline at 4° C. (femura) until fuirther analysis.
Ex vivo peripheral Quantitative Computed Tomography (pQCT) was performed on the excised left tibiae using a Stratec XCT-RM and associated software (Stratec Medizintechnik GmbH, Pforzheim; Germany, software version 5.40). The scans were performed at 12% of the total length from the proximal end of the tibiae. The positions were verified using scout views and one 0.5-mm slice perpendicular to the long axis of the tibial shaft was acquired from each site. The scans were analyzed using a threshold for delineation of the external boundary. The total and trabecular bone mineral content, area and density at each site were determined. Furthermore, pQCT data for mean total bone mineral density are depicted in FIG. 1.

OVX-rats [2] = experiment: Endometrial proliferation after 4-week oral treatment (uterine weight, Ki67); format: in vivo, rat; conditions: 0.5 to […], 4 weeks (FIG. 5)
Description: Endometrial proliferation was chosen as another relevant tissue-specific endpoint to determine the hormonal potency of estetrol after chronic (4-week), oral treatment in ovariectomized rats. An established 4-week animal model, also recommended for evaluation of agents for osteoporosis prevention and therapy, was used. […] 17α-ethinyl-estradiol (EE) and vehicle (1% ethanol/arachidis oil) served as additional controls in this bioassay.
Three months old female Sprague-Dawley rats were either sham-operated (Sham) or ovariectomized (OVX) one day prior to commencement of the dosing study as described in Example 2. Ten animals per treatment group were orally dosed once per day for four consecutive weeks. The dosing commenced 1 day after surgical removal of the ovaries and was administered by oral gavage using a syringe and stainless steel gavage needle at doses of 0.1 mg/kg /day EE, or either 2.5 or 0.5 mg/kg/day E4. Vehicle control was daily administered to one group of OVX-animals and sham-operated rats. After treatment, anesthetized rats were subjected to cardiac puncture and asphyxiated by CO2 inhalation. The uterine horns were isolated and weighed and then fixed in 4% formaldehyde at 4° C. […] Proliferative indices were determined by scoring positively labeled cells on Ki67 immunostained sections. Typically, for each datapoint 1000 luminal epithelial cells were evaluated.

human ERα = biological target: T1, human ERα (Homo sapiens, UniProt P03372); experiment: Competitive steroid binding assay, ERα; conditions: from Ki values for human ERα and ERβ
T1 sequence (P03372 1-595): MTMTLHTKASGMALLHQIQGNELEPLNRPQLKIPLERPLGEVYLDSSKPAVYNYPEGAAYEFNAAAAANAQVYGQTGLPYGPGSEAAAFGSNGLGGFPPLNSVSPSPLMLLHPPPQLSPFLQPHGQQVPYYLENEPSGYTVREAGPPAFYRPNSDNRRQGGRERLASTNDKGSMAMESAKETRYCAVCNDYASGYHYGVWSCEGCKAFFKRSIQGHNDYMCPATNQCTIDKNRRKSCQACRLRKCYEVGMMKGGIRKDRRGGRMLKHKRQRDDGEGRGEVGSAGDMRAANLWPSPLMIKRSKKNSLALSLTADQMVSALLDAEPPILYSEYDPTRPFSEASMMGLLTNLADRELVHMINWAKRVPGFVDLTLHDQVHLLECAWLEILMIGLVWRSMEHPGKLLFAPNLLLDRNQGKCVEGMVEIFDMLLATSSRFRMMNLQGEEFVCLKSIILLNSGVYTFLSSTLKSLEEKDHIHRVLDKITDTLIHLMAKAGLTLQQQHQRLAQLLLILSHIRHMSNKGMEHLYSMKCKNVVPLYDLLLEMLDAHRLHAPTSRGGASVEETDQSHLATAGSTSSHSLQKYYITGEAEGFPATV

immature rat uterus = conditions: subcutaneously administered; cited from earlier work

In the case of `C[C@]12CC[C@@H]3c4ccc(O)cc4CC[C@H]3[C@@H]1[C@@H](O)[C@@H](O)[C@@H]2O` [E4, 1,3,5 (10)-estratrien-3,15α,16α,17β-tetrol], the “Mean Total Bone Mineral Area” value (OVX-rats [1]; 0.1 mg/kg/day) is reported as 14.41 mm^2, the “Mean Total Bone Mineral Content” value (OVX-rats [1]; 0.1 mg/kg/day) is reported as 8.46 mg/mm and the “Mean Total Bone Mineral Density” value (OVX-rats [1]; 0.1 mg/kg/day) is reported as 588.62 mg/mL. The “Mean Trabecular Bone Mineral Area” value (OVX-rats [1]; 0.1 mg/kg/day) was 6.48 mm^2, the “Mean Trabecular Bone Mineral Content” value (OVX-rats [1]; 0.1 mg/kg/day) was 0.96 mg/mm and the “Mean Trabecular Bone Mineral Density” value (OVX-rats [1]; 0.1 mg/kg/day) was 145.46 mg/mL. For the same compound, the “Mean Total Bone Mineral Area” value (OVX-rats [1]; 0.5 mg/kg/day) was 14.80 mm^2, the “Mean Total Bone Mineral Content” value (OVX-rats [1]; 0.5 mg/kg/day) was 9.74 mg/mm and the “Mean Total Bone Mineral Density” value (OVX-rats [1]; 0.5 mg/kg/day) was 660.57 mg/mL. For the same compound, the “Mean Trabecular Bone Mineral Area” value (OVX-rats [1]; 0.5 mg/kg/day) was 6.65 mm^2, the “Mean Trabecular Bone Mineral Content” value (OVX-rats [1]; 0.5 mg/kg/day) was 1.60 mg/mm and the “Mean Trabecular Bone Mineral Density” value (OVX-rats [1]; 0.5 mg/kg/day) was 243.31 mg/mL. The “anti-resorptive activity compared with positive control EE” value (OVX-rats [1]; highest dose) was “equivalent to the effect seen with the positive control EE”, the “percentage of Ki67-positive luminal epithelial cells, dose trend” value (OVX-rats [2]) was “declined with increasing doses” and the “Relative ERα/ERβ preference” value (human ERα) was 400%. For the same compound, the uterotrophic activity (immature rat uterus) was “very weak uterotrophic activity”.
